In patent publication EP0019589A1, “Tripeptide derivatives and their use in a process for determining enzymes” (Pentapharm A.G., priority 1979, dated 1980):
Non-standard residues stand in square brackets, D forms with d. Residues, ends and D or L forms follow the SMILES beside them. *: point of attachment. Cha = N[C@@H](CC1CCCCC1)C(=O)O; dChg = N[C@@H](C(=O)O)C1CCCCC1; pNA = O=[N+]([O-])c1ccc(N*)cc1; AMC = Cc1cc(=O)oc2cc(N*)ccc12; βNA = c1ccc2cc(N*)ccc2c1

Tests used:
Assay type in all cases: biochemical
Urinkallikrein = molecular target: T1, Urinkallikrein (Homo sapiens, UniProt P06870); assay: Cleavage of chromogenic substrate by urinary kallikrein in human urine; conditions: 1 ml human urine (pooled morning urine of healthy persons), per min; Substratkonzentration 2 x 10^-4 molar
T1 construct: 1 ml Urin und 1 ml TRIS-Imidazol-Puffer mit pH 7,9; from tissue; host or cells: human urine
Description: 1. Bestimmung von Urinkallikrein.
1 ml Urin und 1 ml TRIS-Imidazol-Puffer mit pH 7,9 und Ionenstärke 1,0 werden 5 Min. bei 37°C inkubiert undcänn zentrifugiert, um Sedimente zu entfernen.
In einer-Plastikküvette werden 1,4 ml dest. H20 von 37°C und 0,4 ml des Zentrifugats gut gemischt. Zu dieser Mischung gibt man 0,2 ml einer 2 x 10^-3 molaren wässrigen Substratlösung und durchmischt die Komponenten schnell. Dieses Gemisch wird genau 15 Min. bei 37°C inkubiert. Dann wird dem Reaktionsgemisch 0,2 ml Eisessig zugemischt, um die Enzymreaktion zu unterbrechen. Zur Farbmessung verwendet man eine Vergleichsprobe (Blindprobe), die aus den gleichen Komponenten zusammengesetzt ist, wobei jedoch der Eisessig vor Zugabe des Substrates zugesetzt wird, um die Enzymreaktion zu verhindern. Dann wird bei 405 nm photometrisch oder spektrophotometrisch die Menge der gebildeten farbigen Verbindung RNH 2 aus der Differenz zwischen der Blindprobe und der zu bestimmenden Probe ermittelt. Aus dem ermittelten Wert wird die Urinkallikreinaktivität im Urin nach der folgenden Formel berechnet: [formula] • Δ OD = Zunahme der optischen Dichte bei 405 nm während 15 Min. • V = Totalvolumen des Bestimmungsansatzes = 2,2 ml • 1000 = Umrechnungsfaktor zur Umwandlung von U in mU • F = Verdünnungsfaktor des Urins (2) • v = Volumen der Probe = 0,4 ml • ε = Extinktionskoeffizient dividiert durch 1000 = 10,4
Bei der oben beschriebenen Bestimmungsmethode misst man somit die Summe der Aktivitäten von Urinkallikrein und Urokinase. Um die genaue Urinkallikreinaktivität zu erhalten, muss man die Urokinaseaktivität abziehen, welche dadurch bestimmt werden kann, dass man in einem Vergleichsversuch durch Zugabe von 0,075 Einheiten Trypsininhibitor (Trypsininhibitor aus Rinderlunge) pro ml Puffer die Urinkallikreinaktivität vollständig hemmt und nur die Urokinaseaktivität misst.
(§1) Bei der Messung des durch die enzymatische Hydrolyse des Substrates gebildeten Spaltproduktes RrNH2 geht man von der Voraussetzung aus, dass das Spaltprodukt ein UV-Spektrum besitzt, das von demjenigen des Substrates verschieden und in Richtung höherer Wellenlängen verschoben ist. Die Absorption des Substrates bei 405 nm ist praktisch Null. p-Nitroanilin als Spaltprodukt weist ein Absorptionsmaximum bei 380 nm und einen molaren Extinktionskoeffizienten von 13'200 auf. Bei 405 nm ist der Extinktionskoeffizient nur wenig niedriger, d.h. […] Der Grad der enzymatischen Hydrolyse des Substrates, welcher der Menge des abgespaltenen p-Nitroanilins proportional ist, lässt sich durch spektrophotometrische Messung bei 405 nm bestimmen. Auch bei Anwesenheit eines Ueberschusses an Substrat wird die Messung bei 405 nm nicht gestört.
(§2) Bei den Substraten, die als chromogene Gruppe eine 2-Naphthylamino-, 4-Methoxy-2-naphthylamino-, 4-Methyl-cumaryl-(7)-amino- oder 1,3-Di(methoxycarbonyl)-phenyl-(5)-amino-Gruppe enthalten, wird die Menge des Spaltproduktes R-NH2 durch Fluoreszenzspektrophotometrie gemessen. In einem aus Enzym, Puffer und Substrat bestehenden Testsystem misst man kontinuierlich das energieärmere emittierte Licht bei 400-470 nm, nachdem man das gebildete fluoreszierende Spaltprodukt mit energiereicherem Licht erregt hat. Die pro Zeiteinheit gebildete Menge Spaltprodukt ist ein Mass für die vorhandene Enzymaktivität. 1 µMol Spaltprodukt pro Minute entspricht definitionsgemäss 1 Enzym-Einheit, bezogen auf ein gegebenes Substrat.

[1] = molecular target: T2, Submandibularis-Kallikrein (Homo sapiens, UniProt P06870); assay: Cleavage of chromogenic substrate by submandibular (glandular) kallikrein in human sputum; conditions: 1 ml human sputum, per min; Substratkonzentration 2 x 10^-4 molar
T2 construct: Man mischt 0,5 ml Sputum mit 2 ml TRIS-Imidazol-Puffer; from tissue; host or cells: human sputum
Description: 2. Bestimmung des Glandulärkallikreins im Sputum: • Man mischt 0,5 ml Sputum mit 2 ml TRIS-Imidazol-Puffer (Ionenstärke 1,0) und präinkubiert die Mischung 5 Min. bei 37°C. Das Inkubat wird zentrifugiert. In eine Testküvette wird 1,5 ml dest. H2O von 37°C vorgelegt und mit 0,25 ml des Zentrifugats versetzt. Die Komponenten werden gut gemischt. Dann wird 0,2 ml 2 x 10-^3 molare wässrige Substratlösung zugesetzt und gemischt. Dann wird bei 405 nm die Extinktions- änderung kontinuierlich mittels eines Schreibers während 5-10 Min. verfolgt. Aus dem ermittelten Δ OD pro Min. wird mittels der nachstehenden Formel die Kallikreinaktivität pro ml Sputum in mU errechnet: [formula] • F = 5 • V = 1,95 • v = 0,25 • 1 U (Einheit) = Enzymmenge, die während 1 Min. 1 µMol Substrat unter optimalen oder sonst festgelegten Bedingungen in Bezug auf pH, Ionenstärke, Temperatur und Substratkonzentration zu spalten vermag
as §1, with “gestört. […]” for “gestört.”

Humanplasmin = molecular target: T3, Humanplasmin (Homo sapiens, UniProt P00747); assay: Cleavage of chromogenic substrate by human plasmin; conditions: 1 CU-Einheit human plasmin, per min; Substratkonzentration 2 x 10^-4 molar
T3 construct: da bei der Aktivierung aus 1 Molekül Plasminogen 1 Molekül Plasmin entsteht
Description: 3. Bestimmung von Plasmin:
Man mischt 1,7 ml TRIS-Imidazol-Puffer (pH 7,5, Ionenstärke 0,2) bei 37°C mit 0,1 ml einer Lösung von Plasmin in 25%igem Glycerin und inkubiert die Mischung während 1 Min. bei 37°C. Dann gibt man der Mischung 0,2 ml einer wässrigen 2 x 10^-3 molaren Substxatlösung von 37°C zu und durchmischt das Ganze schnell. Man ermittelt dann kontinuierlich die pro Zeiteinheit aus dem Substrat freigesetzte Menge des Spaltproduktes R-NH2. Aus dem pro Min. ermittelten Wert berechnet man dann die Plasminaktivität pro ml Probe in mU nach der folgenden Formel: [formula] • ΔE = pro Min. freigesetzte Menge des Spaltproduktes • V = Totalvolumen des Testansatzes • v = Volumen der Probe • = Extinktionskoeffizient dividiert durch 1000
as §1, §2

Humanthrombin = molecular target: T4, Humanthrombin (Homo sapiens, UniProt P00734); assay: Cleavage of chromogenic substrate by human NIH thrombin; conditions: 1 NIH-Einheit human thrombin, per min; Substratkonzentration 2 x 10^-4 molar
T4 construct: Humanplasmin und hu-manem NIH-Thrombin
Source text: as §1, §2

T2 sequence (P06870 25-262): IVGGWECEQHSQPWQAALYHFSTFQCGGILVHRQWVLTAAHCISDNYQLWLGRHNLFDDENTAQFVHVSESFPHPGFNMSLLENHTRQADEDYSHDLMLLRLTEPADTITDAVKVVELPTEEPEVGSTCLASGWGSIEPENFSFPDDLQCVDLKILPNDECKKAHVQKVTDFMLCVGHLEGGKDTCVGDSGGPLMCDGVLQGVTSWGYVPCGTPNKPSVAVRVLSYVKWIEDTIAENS
T1 sequence (P06870 25-262): as above
T3 sequence (P00747 581-810 limits assumed): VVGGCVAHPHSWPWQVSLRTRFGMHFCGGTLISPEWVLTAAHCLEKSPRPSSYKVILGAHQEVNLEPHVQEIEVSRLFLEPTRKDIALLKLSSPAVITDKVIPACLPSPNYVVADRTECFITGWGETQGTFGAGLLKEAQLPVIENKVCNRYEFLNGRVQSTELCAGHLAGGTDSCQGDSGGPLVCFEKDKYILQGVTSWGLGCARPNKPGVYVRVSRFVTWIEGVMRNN
T3 sequence (P00747 97-580 partner limits assumed): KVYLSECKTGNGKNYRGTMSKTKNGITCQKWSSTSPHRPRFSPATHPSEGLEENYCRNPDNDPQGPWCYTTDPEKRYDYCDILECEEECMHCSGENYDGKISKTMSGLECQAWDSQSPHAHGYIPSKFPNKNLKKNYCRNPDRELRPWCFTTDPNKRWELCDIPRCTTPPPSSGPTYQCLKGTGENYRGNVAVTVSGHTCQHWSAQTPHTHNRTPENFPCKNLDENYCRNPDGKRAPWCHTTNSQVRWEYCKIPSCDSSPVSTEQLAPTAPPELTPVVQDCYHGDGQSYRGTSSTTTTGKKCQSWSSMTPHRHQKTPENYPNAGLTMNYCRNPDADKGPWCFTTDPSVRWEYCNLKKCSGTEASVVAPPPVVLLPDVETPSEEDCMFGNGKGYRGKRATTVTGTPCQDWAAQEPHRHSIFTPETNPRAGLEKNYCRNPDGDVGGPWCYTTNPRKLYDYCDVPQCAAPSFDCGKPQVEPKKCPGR

| Molecule | Menge des durch 1 ml Humanurin pro Min. freigesetzten Spaltproduktes R-NH2 in Nanomol (Urinkallikrein) (Urinkallikrein) | Menge des durch 1 ml Humansputum pro Min. freigesetzten Spaltproduktes R-NH2 in Nanomol (Submandibularis-Kallikrein) [1] | Menge des durch 1 CU-Einheit Humanplasmin pro Min. freigesetzten Spaltproduktes R-NH2 in Nanomol (Humanplasmin) (Humanplasmin) [Nanomol] | Menge des durch 1 NIH-Einheit Thrombin pro Min. freigesetzten Spaltproduktes R-NH2 in Nanomol (Humanthrombin) (Humanthrombin) |
| --- | --- | --- | --- | --- |
| 2HBr.H-D-CHT-Phe-Arg-pNA [Beispiel 17] | 0,77 Nanomol | 7,4 Nanomol | 860 | 18,7 Nanomol |
| 2HBr.H-D-CHT-Pro-Arg-pNA [Beispiel 23] | 1,20 Nanomol | 21,4 Nanomol | 690 | 45,8 Nanomol |
| 2HBr.H-D-CHT-Tyr-Arg-pNA [Beispiel 45] | 0,59 Nanomol | 10,9 Nanomol | 1252 | 9,5 Nanomol |
| CC(C)C[C@H](NC(=O)[C@H](N)C(C)C)C(=O)N[C@@H](CCCNC(=N)N)C(=O)Nc1ccc([N+](=O)[O-])cc1 [A, 2HCl.H-D-Val-Leu-Arg-pNA, reference compound] (H-[dV]-Leu-Arg-pNA) | 0,90 Nanomol | 12,2 Nanomol | 83 |  |
| CC(C)C[C@H](NC(=O)[C@H](N)C(C)C)C(=O)N[C@@H](CCCCN)C(=O)Nc1ccc([N+](=O)[O-])cc1 [B, 2HCl.H-D-Val-Leu-Lys-pNA, reference compound] (H-[dV]-Leu-Lys-pNA) | 0,30 Nanomol | 5,7 Nanomol | 347 |  |
| NCCCC[C@H](NC(=O)[C@H](Cc1ccccc1)NC(=O)[C@H](N)C1CCCCC1)C(=O)Nc1ccc([N+](=O)[O-])cc1 [Beispiel 2, 2HBr.H-D-CHG-Phe-Lys-pNA] (H-[dChg]-Phe-Lys-pNA) | 0,80 Nanomol | 25,6 Nanomol | 1150 |  |
| Cc1cc(=O)oc2cc(NC(=O)[C@H](CCCNC(=N)N)NC(=O)[C@H](CC3CCCCC3)NC(=O)[C@H](N)C(C)C)ccc12 [Beispiel 3, 2HBr.H-D-Val-CHA-Arg-MCA] (H-[dV]-[Cha]-Arg-{AMC}) | 2,55 Nanomol | 31,2 Nanomol | 430 |  |
| Cc1cc(=O)oc2cc(NC(=O)[C@H](CCCCN)NC(=O)[C@H](Cc3ccccc3)NC(=O)[C@H](N)C3CCCCC3)ccc12 [Beispiel 4, 2HBr.H-D-CHG-Phe-Lys-MCA] (H-[dChg]-Phe-Lys-{AMC}) | 0,60 Nanomol | 15,7 Nanomol | 1120 |  |
| COC(=O)c1cc(NC(=O)[C@H](CCCNC(=N)N)NC(=O)[C@H](CC2CCCCC2)NC(=O)[C@H](N)C(C)C)cc(C(=O)OC)c1 [Beispiel 5, 2HBr.H-D-Val-CHA-Arg-DPA] | 2,42 Nanomol | 28,5 Nanomol | 408 |  |
| COC(=O)c1cc(NC(=O)[C@H](CCCCN)NC(=O)[C@H](Cc2ccccc2)NC(=O)[C@H](N)C2CCCCC2)cc(C(=O)OC)c1 [Beispiel 6, 2HBr.H-D-CHG-Phe-Lys-DPA] | 0,72 Nanomol | 24,8 Nanomol | 1215 |  |
| CC(C)[C@@H](N)C(=O)N[C@@H](CC1CCCCC1)C(=O)N[C@@H](CCCNC(=N)N)C(=O)Nc1ccc2ccccc2c1 [Beispiel 7, 2HBr.H-D-Val-CHA-Arg-2-NA] (H-[dV]-[Cha]-Arg-βNA) | 2,55 Nanomol | 31,1 Nanomol | 428 |  |
| NCCCC[C@H](NC(=O)[C@H](Cc1ccccc1)NC(=O)[C@H](N)C1CCCCC1)C(=O)Nc1ccc2ccccc2c1 [Beispiel 8, 2HBr.H-D-CHG-Phe-Lys-2-NA] (H-[dChg]-Phe-Lys-βNA) | 0,58 Nanomol | 17,6 Nanomol | 1180 |  |
| COc1cc(NC(=O)[C@H](CCCNC(=N)N)NC(=O)[C@H](CC2CCCCC2)NC(=O)[C@H](N)C(C)C)cc2ccccc12 [Beispiel 9, 2HBr.H-D-Val-CHA-Arg-4-MeO-2-NA] | 2,38 Nanomol | 25,4 Nanomol | 388 |  |
| COc1cc(NC(=O)[C@H](CCCCN)NC(=O)[C@H](Cc2ccccc2)NC(=O)[C@H](N)C2CCCCC2)cc2ccccc12 [Beispiel 10, 2HBr.H-D-CHG-Phe-Lys-4-MeO-2-NA] | 0,61 Nanomol | 14,9 Nanomol | 1165 |  |
